In patent US10982284B2, “Compositions and methods APC, CREB, and BAD pathways to assess and affect cancer” (H. Lee Moffitt Cancer Center and Research Institute, Inc., priority 2011, dated 2021):

Legend:
Experiment in all cases: CellTiter-Blue cell viability assay
Format in all cases: cell-based, human
IGR-OV1 = IGR-OV1 ovarian cancer cell line, 72 hours, 50% reduction in growth/viability
Text: (§1) Ovarian cancer cell lines were obtained from the American Type Culture Collection (Manassas, Va.) (CAOV3, OV90, OVCAR3, SKOV3, TO[…]); from the European Collection of Cell Cultures, Salisbury, UK (A2780CP, A2780S); or from Kyoto University, Kyoto, Japan ([…], Tyknu, and TyknuC is R) or were kind gifts from Dr. Patricia Kruk, Department of Pathology, College of Medicine, University of South Florida, Tampa, Fla., and Susan Murphy, PhD, Dept of OBGYN/Division of GYN Oncology, Duke University, Durham, N.C. […] Cell lines were maintained in RPMI-1640 (Invitrogen, Carlsbad, Calif.) supplemented with 10% fetal bovine serum (Fisher Scientific, Pittsburgh, Pa.), 1% sodium pyruvate, 1% penicillin/streptomycin (Cellgro, Manassas, Va.), and 1% nonessential amino acids (HyClone, Hudson, N.H.). Mycoplasma testing was performed every 6 months following manufacturer's protocol (Lonza, Rockland, Me.). Drug activity was evaluated using a high-throughput CellTiter-Blue cell viability assay. […] After cell adherence, increasing concentrations of cisplatin, carboplatin (Sigma-Aldrich, St. Louis, Mo.), paclitaxel (Sequoia Research Products Ltd., Pangbourne, UK), or carboplatin plus paclitaxel (carbotaxol: constant molar ratio of carboplatin to paclitaxel of 20,000:1) were added to appropriate wells using an automated pipetting station. Four replicate wells were used for each drug concentration and vehicle controls. […] The cells were incubated with the drug for 72 hours, and 5 μL of CellTiter-Blue reagent (Promega Corp) was added to each well. Fluorescence was read at […] using a Synergy 4 microplate reader (Bio-Tek Instruments, Inc., Winooski, Vt.).

IMCC3 = IMCC3 ovarian cancer cell line; 72 hours; 50% reduction in growth/viability
Text: as §1

OVCA420 = OVCA420 ovarian cancer cell line; 72 hours; 50% reduction in growth/viability
Text: as §1

OVCA429 = OVCA429 ovarian cancer cell line, 72 hours, 50% reduction in growth/viability
Text: as §1

OVCA432 = OVCA432 ovarian cancer cell line, 72 hours, 50% reduction in growth/viability
Text: as §1

OVCAR5 = OVCAR5 ovarian cancer cell line, 72 hours, 50% reduction in growth/viability
Text: as §1

SK-OV-4 = SK-OV-4 ovarian cancer cell line, 72 hours, 50% reduction in growth/viability
Text: as §1

SKOV3 = SKOV3 ovarian cancer cell line, 72 hours, 50% reduction in growth/viability
Text: as §1

FUOV1 = FUOV1 ovarian cancer cell line, 72 hours, 50% reduction in growth/viability
Text: Ovarian cancer cell lines were obtained from the American Type Culture Collection (Manassas, Va.) (CAOV3, OV90, OVCAR3, SKOV3, TOV112D); from the European Collection of Cell Cultures, Salisbury, UK (A2780CP, A2780S); or from Kyoto University, Kyoto, Japan (CHI, CHIcisR, M41, M41CSR, Tyknu, and TyknuC is R) or were kind gifts from Dr. Patricia Kruk, Department of Pathology, College of Medicine, University of South Florida, Tampa, Fla., and Susan Murphy, PhD, Dept of OBGYN/Division of GYN Oncology, Duke University, Durham, N.C. (A2008, C13, CAOV2, FUOV1, HeyA8, IGR-OV1, IMCC3, IMCC5, MCAS, OV2008, OVCA420, OVCA429, OVCA432, OVCA433, OVCAR4, OVCAR5, OVCAR8, Dov13, BG1, Ovary1847, OVCAR10, OVCAR2, SK-OV-4).
Cell lines were maintained in RPMI-1640 (Invitrogen, Carlsbad, Calif.) supplemented with 10% fetal bovine serum (Fisher Scientific, Pittsburgh, Pa.), 1% sodium pyruvate, 1% penicillin/streptomycin (Cellgro, Manassas, Va.), and 1% nonessential amino acids (HyClone, Hudson, N.H.). […]
Drug activity was evaluated using a high-throughput CellTiter-Blue cell viability assay. […] Fluorescence was read at […] using a Synergy 4 microplate reader (Bio-Tek Instruments, Inc., Winooski, Vt.). IC50 results were determined using a sigmoidal equilibrium model fit (XLfit 5.2, ID Business Solutions Ltd.). […]

Question: What does the source list for `N.N.O=C([O-])C1(C(=O)[O-])CCC1.[Pt+2]` [Carboplatin, carboplatin]?
Answer: IC50 (IGR-OV1): 65.4 µM; IC50 (IMCC3): 69.5 µM; IC50 (OVCA420): 166 µM; IC50 (OVCA429): 225 µM; IC50 (OVCA432): 63.1 µM; IC50 (OVCAR5): 125 µM; IC50 (SK-OV-4): 23 µM; IC50 (SKOV3): 247 µM; IC50 (FUOV1): 87.9 µM

Question: For `CC(=O)O[C@H]1C(=O)[C@@]2(C)[C@H]([C@H](OC(=O)c3ccccc3)[C@]3(O)C[C@H](OC(=O)[C@H](O)[C@@H](NC(=O)c4ccccc4)c4ccccc4)C(C)=C1C3(C)C)[C@]1(OC(C)=O)CO[C@@H]1C[C@@H]2O` [Paclitaxel, paclitaxel], which IC50 (IGR-OV1; Homo sapiens, IGROV-1) is on record?
Answer: 0.0374 µM

Question: What about the IC50 (OVCA429; Homo sapiens) of the same molecule?
Answer: 0.0029 µM

Question: And the IC50 (OVCA432; Homo sapiens)?
Answer: 0.0063 µM

Question: What about the IC50 (OVCAR5; Homo sapiens, OVCAR-5) of the same molecule?
Answer: 0.0056 µM

Question: What about the IC50 (SK-OV-4; Homo sapiens) of the same molecule?
Answer: 0.0023 µM

Question: And the IC50 (SKOV3; Homo sapiens, SK-OV-3)?
Answer: 0.0887 µM

Question: What about the IC50 (FUOV1; Homo sapiens) of the same molecule?
Answer: 4.4 µM
